Experimental findings from patent US9486524B2, “Composition for eliciting a specific CTL response, comprising a lympho-ablative compound and a molecule that contains antigenic sequences and targets professional antigen presenting cells” (priority 2006, dated 2016) are described below.

Common to all, as to format: in vivo, C57BL/6 mice
In experiment [1] the test system is CD4, CD8 and B220 cells in the spleen and lymph nodes. Kind of experiment: Lymphocyte depletion in lymphoid organs, phenotyping of spleen and lymph nodes (Example 1, Table 1). The conditions noted are these: 10 days after onset of immunosuppressive treatment; ATG 20 mg/kg single ip, fludarabine 200 mg/kg/day ip 6 days. As for the experimental part:
(§1) Blood sampling was performed by tail bleeding.
Blood, lymph node cells and splenocytes were processed according to previously described methods (28, 29) for numeration and flow cytometry assited phenotyping. Blood lymphocytes were counted using Türk blue.
The blood compartment represents only 1 to 2% on the total body lymphoid mass. Lymphocyte depletion by phenotyping for T and B cells, spleen and lymph nodes 10 days after onset of immunosuppression has been monitored. Similarly to the situation in the blood compartment, ATG- and fludarabine-based immunosuppressive therapies induced a depletion of the T lymphocyte pool in lymphoid organs (Table 1).
Peripheral lymphoid organs were sampled 10 days after onset of immunosuppressive treatment administration. Values presented are the percentages of CD4, CD8 and B220 cells observed in the spleen and lymph nodes.

In experiment [2] the test system is peripheral blood lymphocytes (CD4+, CD8+, CD49d+ and B220+). Kind of experiment: Peripheral blood lymphocyte depletion induced by immunosuppressive treatment (Example 2). The conditions noted are these: after onset of treatment; Fludarabine 100 mg/kg/day ip for 6 days. As for the experimental part: Kinetic of the number of lymphocytes (CD4+, CD8+, CD49d+ and B220+) in peripheral blood following i.p. injection of 100 mg/kg/day Fludarabine for 6 days or following a single i.p. injection of 20 mg/kg ATG. Controls are injected with PBS or with 20 mg/kg of normal rabbit serum (NRS)
as §1
(§2) Blood, lymph node cells and splenocytes were processed according to previously described methods (28, 29) for numeration and flow cytometry assisted phenotyping. Blood lymphocytes were counted using Trypan blue.
Mouse ATG were prepared by injecting a rabbit sc with 5×10^8 thymocytes sampled on 6-weeks old C57BL/6 mice. This immunization was boosted 14 days later with an iv injection of identical material. Seven days later the animal was bled and serum IgG were purified on immobilized protein G column (Pierce). Purity was controlled by SDS PAGE analysis and quantity was estimated by the Bradford method with known concentration rabbit IgG as standards. Rabbit ATG was used at a concentration of 20 mg/kg with a single injection. As a control, normal rabbit serum was used.
Fludarabine (Sigma) was used at a concentration of 100 mg/kg/day for 6 days. Monoclonal antibodies: anti-CD4-APC, anti-CD8-PerCP, anti-B220-FITC and anti-CD49d (Pan NK)-PE were obtained from BD Biosciences.

Experiment [3] concerns CD4, CD8, CD49d and B220 cells in the spleen and maxillary lymph nodes. Put plainly: Lymphocyte depletion in lymphoid organs, phenotyping of spleen and maxillary lymph nodes (Example 2, Table 2). The note with it: 14 days after onset of treatment, ATG 20 mg/kg single ip, Fludarabine 100 mg/kg/day ip 6 days. As for the experimental part: as §1, §2
The blood compartment represents only 1 to 2% on the total body lymphoid mass. The Inventors therefore monitored lymphocyte depletion by phenotyping for T and B cells, spleen and lymph nodes 14 days after onset of immunosuppression. Compared to controls (PBS and NRS) Fludarabine- and ATG-based immunosuppressive therapies induced modifications of lymphocyte proportion in lymphoid organs (Table 2).
Peripheral lymphoid organs were sampled 14 days after onset of immunosuppressive treatment administration. Values presented are the percentages of CD4, CD8, CD49d and B220 cells observed in the spleen and maxillary lymph nodes, and the absolute values of CD4, CD8, CD49d and B220 by reference to the number of lymphocytes contained in each organ.

The test system of experiment [4] is MCa32A cells. Put plainly: Tumor rejection model, MC38 murine colon adenocarcinoma cells expressing CEA (Example 2). As for the experimental part:
as §1
MC32aCEA cells expressing CEA protein were obtained from Pr. W. Zimermann (LTI, Munich). These cells are derived from the MC38 murine colon adenocarcinoma (48).

Experiment [5] relates to CEA-specific IFN-γ producing CD8+ cells. Put plainly: γ-IFN ELISpot assay of CEA-specific CD8+ cells after immunization (Example 2). As for the experimental part: […] Seven days after last immunization, CEA-specific IFN-γ producing CD8+ cells were detected by ex vivo ELISpot assay using 1 μg/ml CEA pepscan. Data are expressed as the median numbers of γ-IFN spot forming colonies, SFC (n=3).
ATG- or Fludarabine-based immunosuppressive treatments were applied to animals 7 days prior to prime boost immunization with recombinant proteins. Immunizations performed iv with equimolar amounts of indicated recombinant proteins (50 μg for CyaAs, 19.2 μg for His-tag CEA) in presence of 10 μg CpG, were boosted id 7 days later with 10 μg of similar material (3.8 μg for His-tag CEA) and 2 μg of CpG. Seven days after last immunization, CEA-specific IFN-γ producing CD8+ cells were detected by ex vivo ELISpot assay using 1 μg/ml CEA pepscan. Data are expressed as the median numbers of γ-IFN spot forming colonies, SFC (n=2).
Multiscreen filtration plates (96 wells; Millipore, France) were coated with 4 μg/ml of rat anti-mouse gamma interferon (IFN-γ) antibody (clone R4-6A2; PharMingen, San Diego, Calif.), overnight at room temperature. Spleen cells from immunized mice were added to the wells and incubated for 20 h with or without CEA pepscan at 1 μg/ml. […] The number of γ-IFN producing cells was determined by counting the number of spot-forming colonies (SFC) in each well (C.T.L., Germany), and the results were expressed as number of SFC per 1×10^6 splenocytes (20).

Turning to `Nc1nc(F)nc2c1ncn2[C@@H]1O[C@H](CO)[C@@H](O)[C@@H]1O` [Fludarabine], in experiment [1], the “percentage of B220+ cells, Lymph nodes” value came out at 32.4%; the “percentage of B220+ cells, Spleen” value is 54.3%; the “percentage of CD4+ cells, Lymph nodes” value amounted to 37.8%; the “percentage of CD4+ cells, Spleen” value turned out to be 21.9%. Besides, in experiment [1], the “percentage of CD8+ cells, Lymph nodes” value was 20.8% and the “percentage of CD8+ cells, Spleen” value came to 5.3%. Moreover, the “time for T cell values to return to control groups” value in experiment [2] is at most 7 days. In experiment [3], the “B220+ absolute value, Spleen” value is listed as 8 10^6 cells/ml; the “B220+ percentage, Spleen” value came to 42.4%; the “CD4+ absolute value, Spleen” value was 3.8 10^6 cells/ml; the “CD4+ percentage, Spleen” value was determined as 20.4%. Moreover, in experiment [3], the “CD8+ absolute value, Spleen” value is listed as 2.5 10^6 cells/ml; the “CD8+ percentage, Spleen” value is reported as 13.4%; the “CD49d+ absolute value, Spleen” value is 1.4 10^6 cells/ml; the “CD49d+ percentage, Spleen” value is 7.5%. In experiment [3] (maxillary lymph nodes), the “B220+ absolute value, Lymph nodes” value is reported as 0.3 10^6 cells/ml; the “B220+ percentage, Lymph nodes” value worked out at 30.2%; the “CD4+ absolute value, Lymph nodes” value was 0.3 10^6 cells/ml; the “CD4+ percentage, Lymph nodes” value is on record as 31.3%. In experiment [3] (maxillary lymph nodes), the “CD8+ absolute value, Lymph nodes” value is given as 0.3 10^6 cells/ml; the “CD8+ percentage, Lymph nodes” value is given as 35.3%; the “CD49d+ absolute value, Lymph nodes” value is listed as 0.03 10^6 cells/ml; the “CD49d+ percentage, Lymph nodes” value came out at 3.8%. Further, the “size of tumors relative to the other groups (smaller)” value in experiment [4] (at the time of CyaA-based immunotherapy) turned out to be 20 times. Further, the “survival median of mock-treated animals” value in experiment [4] (immunosuppressive treatment 3 days after tumor inoculation, no CEA immunization) fell in the range of 21 to 25 days.

B1: His-Tag-CEA: histidine-tagged full length CEA protein, used as control, formulated with CpG (protein, UniProt P06731 1-702, looked up)
chain: MESPSAPPHRWCIPWQRLLLTASLLTFWNPPTTAKLTIESTPFNVAEGKEVLLLVHNLPQHLFGYSWYKGERVDGNRQIIGYVIGTQQATPGPAYSGREIIYPNASLLIQNIIQNDTGFYTLHVIKSDLVNEEATGQFRVYPELPKPSISSNNSKPVEDKDAVAFTCEPETQDATYLWWVNNQSLPVSPRLQLSNGNRTLTLFNVTRNDTASYKCETQNPVSARRSDSVILNVLYGPDAPTISPLNTSYRSGENLNLSCHAASNPPAQYSWFVNGTFQQSTQELFIPNITVNNSGSYTCQAHNSDTGLNRTTVTTITVYAEPPKPFITSNNSNPVEDEDAVALTCEPEIQNTTYLWWVNNQSLPVSPRLQLSNDNRTLTLLSVTRNDVGPYECGIQNELSVDHSDPVILNVLYGPDDPTISPSYTYYRPGVNLSLSCHAASNPPAQYSWLIDGNIQQHTQELFISNITEKNSGLYTCQANNSASGHSRTTVKTITVSAELPKPSISSNNSKPVEDKDAVAFTCEPEAQNTTYLWWVNGQSLPVSPRLQLSNGNRTLTLFNVTRNDARAYVCGIQNSVSANRSDPVTLDVLYGPDTPIISPPDSSYLSGANLNLSCHSASNPSPQYSWRINGIPQQHTQVLFIAKITPNNNGTYACFVSNLATGRNNSIVKSITVSASGTSPGLSAGATVGIMIGVLVGVALI
modifications: full-length His tag
notes: histidine-tagged full length CEA protein, used as control, formulated with CpG
For the molecule B1, in experiment [5] (compared with CyaA-CEAA3B3 + CpG, prime-boost with CpG), the “CEA-specific cellular immune responses upon immunization after immunosuppressive treatment” value is “Lower CEA-specific cellular immune responses were detected”. Also, the “cellular immune response characterized by γ-IFN secretion” value in experiment [5] (one single iv administration, with CpG adjuvant, no immunosuppression) is “neither CyaAΔ-CEAA3B3 nor His-tag-CEA protein formulated with an adjuvant such as CpG, were able to mount a cellular immune response”.
